Measured values: PubChem BioAssay AID296 (DTP/NCI, 2004)
Inconclusive results are not listed.

Tested on: MX-1 breast xenograft, nude mice, tumor weight T/C
Assay: NCI In Vivo Anticancer Drug Screen. Data for tumor model Human Mammary Carcinoma MX-1 Xenograft (intrarenal inoculation) in NU/NU Swiss (nude) mice
Conditions: endpoint: mean tumor weight change, higher = larger tumour
Summary of the method: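 Tumor-bearing mice were treated with test compound alongside a vehicle-treated control group. Survival or tumor size was measured, and activity is expressed as the treated-group value divided by the control-group value.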

[1] = dose: 100.0 mg/kg/injection, schedule: Q01DX010 (sc), vehicle: saline with Tween-80
[2] = dose: 200.0 mg/kg/injection, schedule: Q01DX010 (sc), vehicle: saline with Tween-80
[3] = dose: 400.0 mg/kg/injection, schedule: Q01DX010 (sc), vehicle: saline with Tween-80
[4] = dose: 800.0 mg/kg/injection, schedule: Q01DX010 (sc), vehicle: saline with Tween-80

c1ccc2c(NCCCCCCCCNc3c4ccccc4nc4ccccc34)c3ccccc3nc2c1
T/C (dose: 10.0 mg/kg/injection, schedule: Q01DX010 (sc), vehicle: Klucel (hydroxypropylcellulose) (HPC)): 93 % of control
T/C (dose: 20.0 mg/kg/injection, schedule: Q01DX010 (sc), vehicle: Klucel (hydroxypropylcellulose) (HPC)): 16 % of control
T/C (dose: 40.0 mg/kg/injection, schedule: Q01DX010 (sc), vehicle: Klucel (hydroxypropylcellulose) (HPC)): 93 % of control
T/C (dose: 80.0 mg/kg/injection, schedule: Q01DX010 (sc), vehicle: Klucel (hydroxypropylcellulose) (HPC)): 58 % of control

CCCCN(CCCC)C(Cl)=Nc1ccccc1
T/C (dose: 800.0 mg/kg/injection, schedule: Q04DX003 (sc), vehicle: other): 89 % of control
T/C (dose: 1600.0 mg/kg/injection, schedule: Q04DX003 (sc), vehicle: other): 124 % of control

C=C(C(=O)O)C(N)C(=O)O (configuration not stated)
T/C (dose: 300.0 mg/kg/injection, schedule: Q04DX003 (sc), vehicle: suspension in saline): 96 % of control
T/C (dose: 600.0 mg/kg/injection, schedule: Q04DX003 (sc), vehicle: suspension in saline): 78 % of control
T/C (dose: 1200.0 mg/kg/injection, schedule: Q04DX003 (sc), vehicle: suspension in saline): 88 % of control

O=C1C=C[C@H](O)[C@@]2(CO)O[C@@H]12
T/C (dose: 3.12 mg/kg/injection, schedule: Q04DX003 (sc), vehicle: saline with Tween-80): 106 % of control
T/C (dose: 6.25 mg/kg/injection, schedule: Q04DX003 (sc), vehicle: saline with Tween-80): 85 % of control

O=C1CC2(C(=O)N1CN1CCCCC1)c1ccccc1-c1ccccc12
T/C (dose: 200.0 mg/kg/injection, schedule: Q04DX003 (sc), vehicle: Klucel (hydroxypropylcellulose) (HPC)): 79 % of control
T/C (dose: 400.0 mg/kg/injection, schedule: Q04DX003 (sc), vehicle: Klucel (hydroxypropylcellulose) (HPC)): 71 % of control
T/C (dose: 800.0 mg/kg/injection, schedule: Q04DX003 (sc), vehicle: Klucel (hydroxypropylcellulose) (HPC)): 72 % of control

CN(N=O)C(N)=O
T/C (dose: 12.5 mg/kg/injection, schedule: Q01DX010 (sc), vehicle: saline with Tween-80): 41 % of control
T/C (dose: 12.5 mg/kg/injection, schedule: Q04DX003 (sc), vehicle: saline): 83 % of control
T/C (dose: 25.0 mg/kg/injection, schedule: Q04DX003 (sc), vehicle: saline): 54 % of control
T/C (dose: 25.0 mg/kg/injection, schedule: Q04DX003 (sc), vehicle: suspension in saline): 54 % of control
T/C (dose: 50.0 mg/kg/injection, schedule: Q04DX003 (sc), vehicle: saline with Tween-80): 17 % of control
T/C (dose: 50.0 mg/kg/injection, schedule: Q04DX003 (sc), vehicle: saline): 6 % of control
T/C (dose: 50.0 mg/kg/injection, schedule: Q04DX003 (sc), vehicle: suspension in saline): 63 % of control
T/C (dose: 100.0 mg/kg/injection, schedule: Q04DX003 (sc), vehicle: saline with Tween-80): -68 % of control
T/C (dose: 100.0 mg/kg/injection, schedule: Q04DX003 (sc), vehicle: saline): -100 % of control
T/C (dose: 100.0 mg/kg/injection, schedule: Q04DX003 (sc), vehicle: suspension in saline): 17 % of control

S=c1[nH]cc2cnccn12
T/C (dose: 300.0 mg/kg/injection, schedule: Q04DX003 (sc), vehicle: saline with Tween-80): 104 % of control
T/C (dose: 600.0 mg/kg/injection, schedule: Q04DX003 (sc), vehicle: saline with Tween-80): 97 % of control
T/C (dose: 1200.0 mg/kg/injection, schedule: Q04DX003 (sc), vehicle: saline with Tween-80): 106 % of control

Cc1ccc(C(=O)NC2C(=O)NC(C(C)C)C(=O)N3CCCC3C(=O)N(C)CC(=O)N(C)C(C(C)C)C(=O)OC2C)c2c1Oc1c(c(C(=O)NC3C(=O)NC(C(C)C)C(=O)N4CCCC4C(=O)N(C)CC(=O)N(C)C(C(C)C)C(=O)OC3C)c3nc(-c4ccccc4)c(=O)oc3c1C)N2 (configuration not stated)
T/C (dose: 0.25 mg/kg/injection, schedule: Q04DX003 (ip), vehicle: water): 77 % of control
T/C (dose: 0.5 mg/kg/injection, schedule: Q04DX003 (ip), vehicle: water): 75 % of control
T/C (dose: 1.0 mg/kg/injection, schedule: Q04DX003 (ip), vehicle: water): 49 % of control
T/C (dose: 2.0 mg/kg/injection, schedule: Q04DX003 (ip), vehicle: water): 51 % of control
T/C (dose: 4.0 mg/kg/injection, schedule: Q04DX003 (ip), vehicle: water): 12 % of control

CN1C(=O)NC(c2ccc(Cl)cc2)(c2ccc(Cl)cc2)C1=O
T/C (dose: 50.0 mg/kg/injection, schedule: Q01DX010 (sc), vehicle: saline with Tween-80): 90 % of control
T/C [1]: 109 % of control
T/C [2]: 60 % of control
T/C [3]: 49 % of control

O=C(N/N=C\c1cc(Br)cc(Br)c1O)N/N=C/c1cc(Br)cc(Br)c1O
T/C [3]: 72 % of control
T/C [4]: 61 % of control

CCOC(C)C(/C=N/NC(N)=S)=NNC(N)=S (configuration not stated)
T/C [1]: 167 % of control
T/C [2]: 123 % of control
T/C [4]: 96 % of control

COC(=O)[C@@]12OC[C@]34[C@H]([C@@H](O)[C@@H]1O)[C@@]1(C)CC(=O)C(O)=C(C)[C@@H]1C[C@H]3OC(=O)[C@H](OC(=O)/C=C(\C)C(C)C)[C@@H]24
T/C (dose: 0.25 mg/kg/injection, schedule: Q04DX003 (sc), vehicle: saline + alcohol): 52 % of control
T/C (dose: 0.5 mg/kg/injection, schedule: Q04DX003 (sc), vehicle: saline + alcohol): 158 % of control
T/C (dose: 1.0 mg/kg/injection, schedule: Q04DX003 (sc), vehicle: saline + alcohol): 100 % of control
T/C (dose: 2.0 mg/kg/injection, schedule: Q04DX003 (sc), vehicle: saline + alcohol): 90 % of control

COc1cccc2c1C(=O)c1c(O)c3c(c(O)c1C2=O)C[C@@](O)(C(=O)CO)C[C@@H]3OC1CC(N)C(O)C(C)O1 (some centres not stated)
T/C (dose: 0.25 mg/kg/injection, schedule: Q01DX010 (ip), vehicle: water): 46 % of control
T/C (dose: 0.5 mg/kg/injection, schedule: Q01DX010 (ip), vehicle: water): 37 % of control
T/C (dose: 0.75 mg/kg/injection, schedule: Q01DX010 (sc), vehicle: saline): 159 % of control
T/C (dose: 1.0 mg/kg/injection, schedule: Q01DX010 (ip), vehicle: water): 10 % of control
T/C (dose: 1.5 mg/kg/injection, schedule: Q01DX010 (sc), vehicle: saline): 84 % of control
T/C (dose: 3.0 mg/kg/injection, schedule: Q01DX010 (sc), vehicle: saline): 94 % of control
T/C (dose: 4.0 mg/kg/injection, schedule: Q04DX003 (sc), vehicle: water): 61 % of control
T/C (dose: 6.0 mg/kg/injection, schedule: Q01DX010 (sc), vehicle: saline): 52 % of control
T/C (dose: 6.0 mg/kg/injection, schedule: Q01DX010 (sc), vehicle: water): 69 % of control
T/C (dose: 8.0 mg/kg/injection, schedule: Q04DX003 (sc), vehicle: water): 61 % of control

C[C@@]1(CO)[C@H](O)CC[C@@]2(C)[C@H]1CC[C@H]1C[C@@H]3C[C@@]12CC[C@@]3(O)COC(=O)CN
T/C (dose: 125.0 micrograms/kg/injection, schedule: Q04DX003 (sc), vehicle: saline + alcohol): 102 % of control
T/C (dose: 250.0 micrograms/kg/injection, schedule: Q04DX003 (sc), vehicle: saline + alcohol): 34 % of control
T/C (dose: 500.0 micrograms/kg/injection, schedule: Q04DX003 (sc), vehicle: saline + alcohol): 55 % of control
T/C (dose: 1000.0 micrograms/kg/injection, schedule: Q04DX003 (sc), vehicle: saline + alcohol): 70 % of control

C[C@]12CCC(=O)C=C1CC[C@@H]1[C@@H]2[C@@H](O)C[C@@]2(C)[C@H]1CC[C@]2(O)C(=O)CO
T/C (dose: 75.0 mg/kg/injection, schedule: Q04DX003 (sc), vehicle: Klucel (hydroxypropylcellulose) (HPC)): 117 % of control
T/C (dose: 150.0 mg/kg/injection, schedule: Q04DX003 (sc), vehicle: Klucel (hydroxypropylcellulose) (HPC)): 45 % of control
T/C (dose: 300.0 mg/kg/injection, schedule: Q04DX003 (sc), vehicle: Klucel (hydroxypropylcellulose) (HPC)): 33 % of control
T/C (dose: 600.0 mg/kg/injection, schedule: Q04DX003 (sc), vehicle: Klucel (hydroxypropylcellulose) (HPC)): 33 % of control

COc1cc2c(c(OC)c1OC)-c1ccc(OC)c(=O)cc1[C@@H](NC(C)=O)CC2
T/C (dose: 0.25 mg/kg/injection, schedule: Q01DX010 (sc), vehicle: saline): 94 % of control
T/C (dose: 0.5 mg/kg/injection, schedule: Q01DX010 (sc), vehicle: saline): 30 % of control

CNc1nc(N(C)C)nc(N(C)C)n1
T/C (dose: 12.5 mg/kg/injection, schedule: Q04DX003 (sc), vehicle: water): 59 % of control
T/C (dose: 25.0 mg/kg/injection, schedule: Q04DX003 (sc), vehicle: water): 60 % of control
T/C (dose: 30.0 mg/kg/injection, schedule: Q01DX010 (sc), vehicle: water): 24 % of control
T/C (dose: 50.0 mg/kg/injection, schedule: Q04DX003 (sc), vehicle: water): 34 % of control
T/C (dose: 60.0 mg/kg/injection, schedule: Q01DX010 (sc), vehicle: water): 3 % of control
T/C (dose: 100.0 mg/kg/injection, schedule: Q04DX003 (sc), vehicle: water): 10 % of control
T/C (dose: 120.0 mg/kg/injection, schedule: Q01DX010 (sc), vehicle: water): -63 % of control
